Where two headings read alike, the source gives them in different places.
How the values were obtained:
[1] = tested on: HCV replicon (5-2 Luc replicon-comprising cells); test: HCV replicon assay (luciferase reporter); assay type: cell-based, Hepatitis C virus; details: first symbol of the Replicon/Western cell, 5-2 Luc replicon cells, 24 hours with compound, read-out: Replicon (IC50, 50% reduction in luciferase emission)
Procedure: The inhibitory activity of certain exemplary compounds of the invention was confirmed using an HCV replicon assay. The HCV replicon can include such features as the HCV IRES, the HCV 3′ untranslated region, selected HCV genes encoding HCV polypeptides, selectable markers, and a reporter gene such as luciferase, GEP, etc. In the assay, actively dividing 5-2 Luc replicon-comprising cells were seeded at a density of between about 5,000 and 7,500 cells/well onto 96 well plates (about 90 μl of cells per well) and incubated at 37° C. and 5% CO2 for 24 hours. Then, the test compound (in a volume of about 10 μl) was added at various concentrations to each well and the cells were incubated for an additional 24 hours before luciferase assay. The cells were harvested, and HCV replication or translation was monitored via a reporter assay, e.g., a luciferase reporter assay. The media was aspirated from each cell and Bright-Glo ([…].) luciferase assay reagents were added to each well according to the manufacturer's instructions. In this assay, the amount of test compound that yielded a 50% reduction in luciferase emission (IC50) was determined.

[2] = cytotoxicity assay (Cell Titer Glo); assay type: cell-based; details: human; 48 hr with compound, ATP-dependent Cell Titer Glo; read-out: IC50 (cytotoxicity, number of viable cells)
Procedure: Compounds 1, 3, 7, 9, 11, 13, 17, 19, 21, 27, 29, 31, 33, 35, 37, 39, 47, 49, 51, 57 and 69 were tested in a cytotoxicity assay with liver cells including an HCV replicon (5-2 Luc cells, 9-13 cells or Huh-7 cells). In the assay, cells were seeded onto 96-well plates (approx. 7500 cells/well in a volume of 90 μl) and grown for 24 hr at 37° C. On day 2, various concentrations of test compound (in a volume of 10 μl) were added to the wells and the cells were grown for an additional 48 hr at 37° C. On day 4, an ATP-dependent R-Luciferase assay (Cell Titer Glo assay) was performed to determine the number of viable cells.

[3] = tested on: HCV proteins (HCV replication); test: quantitative Western blot analysis with antibodies specific for certain HCV proteins; assay type: cell-based, Hepatitis C virus; details: second symbol of the Replicon/Western cell, read-out: Western (IC50, 50% reduction in the amount of the specified HCV protein)
Procedure: Certain exemplary compounds of the invention were also tested for their ability to inhibit HCV replication using a quantitative Western blot analysis with antibodies specific for certain HCV proteins. In this assay, the amount of test compound that yielded a 50% reduction in the amount of the specified HCV protein as compared to a control sample (IC50) was determined.

Row | Compound | IC50 [1] [µM] | IC50 ([1]; Hepatitis C virus) [µM] | IC50 at 48 h [2] [µM] | also measured
1 | 2,2-Dichloro-N-[5-[3-[2-chloro-6-[4-(N-2-pyridyl)pipera phenyl])5-isoxazolyl]-(3-pyridyl)] Acetamide [Compound 69] | < 10 | – | – | –
2 | 2,2-Dichloro-N-[5-[3-[2-chloro-6-[4-(N-acetyl)piperazino]phenyl])-5-isoxazoly]-(3-pyridyl)] Acetamide [Compound 61] | < 10 | – | – | –
3 | 2,2-Dichloro-N-[5-[3-[2-chloro-6-[4-(N-ethylcarboxamido)piperazino]phenyl])-5-isoxazolyl]-(3-pyridyl)] Acetamide [Compound 81] | < 10 | – | – | –
4 | 2,2-Dichloro-N-[5-[3-[2-chloro-6-[4-(N-tert-butoxycarbonyl)piperazino]phenyl])-5-isoxazolyl]-(3-pyridyl)] Acetamide [Compound 71] | < 10 | – | – | –
5 | O=C(Nc1ccnc(-c2cc(-c3c(F)cccc3Cl)no2)c1)C(Cl)Cl [Compound 1, 2,2-Dichloro-N-[2-[3-(2-chloro-6-fluorophenyl)-5-isoxazolyl]-(4-pyridyl)] Acetamide] | – | < 10 | ≥ 10 | –
6 | O=C(Nc1ccnc(-c2cc(-c3c(F)cccc3C(F)(F)F)no2)c1)C(Cl)Cl [Compound 3, 2,2-Dichloro-N-[2-[3-(2-fluoro-6-trifluoromethylphenyl)-5-isoxazolyl]-(4-pyridyl)] Acetamide] | – | < 10 | ≥ 10 | IC50 ([3]; Hepatitis C virus): < 10 µM
7 | COc1cccc(F)c1-c1cc(-c2cc(NC(=O)C(Cl)Cl)ccn2)on1 [Compound 5, 2,2-Dichloro-N-[2-[3-(2-fluoro-6-methoxyphenyl)-5-isoxazolyl]-(4-pyridyl)] Acetamide] | – | > 10 | – | IC50 ([3]; Hepatitis C virus): < 10 µM
8 | O=C(Nc1cncc(-c2cc(-c3c(Cl)cccc3Cl)no2)c1)C(Cl)Cl [Compound 7, 2,2-Dichloro-N-[5-[3-(2,6-dichlorophenyl)-5-isoxazolyl]-(3-pyridyl)] Acetamide] | – | < 10 | ≥ 10 | IC50 ([3]; Hepatitis C virus): < 10 µM
9 | O=C(Nc1cccc(-c2cc(-c3cc(Cl)nc(Cl)c3)no2)c1)C(Cl)Cl [Compound 11, 2,2-Dichloro-N-[3-[3-[(2,6-dichloro)-4-pyridyl]-5-isoxazolyl]phenyl] Acetamide] | > 10 | – | – | IC50 [3]: < 10 µM
10 | Cc1cccc(C)c1-c1cc(-c2cc(NC(=O)C(Cl)Cl)ccn2)on1 [Compound 19, 2,2-Dichloro-N-[2-[3-(2,6-dimethylphenyl)-5-isoxazolyl]-(4-pyridyl)] Acetamide] | – | < 10 | > 5 | –
11 | O=C(Nc1cncc(-c2cc(-c3cccc(Cl)c3Cl)no2)c1)C(Cl)Cl [Compound 29, 2,2-Dichloro-N-[5-[3-(2,3-dichloroplhenyl)-5-isoxazolyl]-(3-pyridyl)] Acetamide] | – | < 10 | ≥ 10 | –
12 | O=C(Nc1ccnc(-c2cc(-c3c(N4CCOCC4)cccc3C(F)(F)F)no2)c1)C(Cl)Cl [Compound 31, 2,2-Dichloro-N-[2-[3-(2-morpholino-6-trifluoromethylphenyl)-5-isoxazolyl]-(4-pyridyl)] Acetamide] | – | < 10 | ≥ 10 | –
13 | Cc1cccnc1-c1cc(-c2cccc(NC(=O)C(Cl)Cl)c2)on1 [Compound 33, 2,2-Dichloro-N-[3-[3-(3-methyl-2-pyridyl)-5-isoxazolyl]phenyl] Acetamide] | – | < 10 | ≥ 10 | –
14 | O=C(Nc1cccc(-c2cc(-c3c(Cl)cccc3Cl)no2)n1)C(Cl)Cl [Compound 35, 2,2-Dichloro-N[6-[3-(2,6-dichlorophenyl)-5-isoxazolyl]-(2-pyridyl)] Acetamide] | – | > 10 | ≥ 10 | –
15 | O=C(Nc1cncc(-c2cc(-c3c(F)cccc3C(F)(F)F)no2)c1)C(Cl)Cl [Compound 37, 2,2-Dichloro-N-[5-[3-(2-fluoro-6-trifluoromethylphenyl)-5-isoxazolyl]-(3-pyridyl)] Acetamide] | – | > 10 | ≥ 10 | –
16 | COc1cccc(F)c1-c1cc(-c2cc(NC(=O)C(Cl)Cl)ccn2)on1 [Compound 39] | – | – | ≥ 10 | –
17 | O=C(Nc1cc[n+]([O-])c(-c2cc(-c3c(Cl)cccc3Cl)no2)c1)C(Cl)Cl [Compound 43] | – | > 10 | – | –
18 | CCOC(=O)c1cccnc1-c1cc(-c2cccc(NC(=O)C(Cl)Cl)c2)on1 [Compound 45, 2,2-Dichloro-N-[3-[3-[(3-ethoxycarbonyl)-2-pyridyl]-5-isoxazolyl]phenyl] Acetamide] | – | > 10 | – | –

Row | Compound | IC50 [1] [µM] | IC50 ([1]; Hepatitis C virus) [µM] | IC50 at 48 h [2] [µM] | also measured
19 | O=C(Nc1ccnc(-c2cc(-c3c(F)cccc3S(=O)(=O)NN3CCOCC3)no2)c1)C(Cl)Cl [Compound 47] | < 10 | – | – | –
20 | CN(C(=O)C(Cl)Cl)c1ccnc(-c2cc(-c3c(Cl)cccc3Cl)no2)c1 [Compound 51, 2,2-Dichloro-N-[2-[3-(2,6-dichlorophenyl)-5-isoxazolyl]-(4-pyridyl)]-N-methyl Acetamide] | – | < 10 | ≥ 10 | –
21 | O=C(Nc1ccnc(-c2cc(-c3c(Cl)cccc3N3CCN(c4ccccn4)CC3)no2)c1)C(Cl)Cl [Compound 53] | – | < 10 | – | IC50 ([3]; Hepatitis C virus): < 10 µM
22 | CCN1CCN(c2cccc(Cl)c2-c2cc(-c3cncc(NC(=O)C(Cl)Cl)c3)on2)CC1 [Compound 63] | – | < 10 | – | –
23 | O=C(Nc1ccc(-c2cc(-c3c(Cl)cccc3Cl)no2)cn1)C(Cl)Cl [Compound 65, 2,2-Dichloro-N-[5-[3-(2,6-dichlorophenyl)-5-isoxazolyl]-(2-pyridyl)] Acetamide] | > 10 | – | – | –
24 | O=C(Nc1cncc(-c2cc(-c3ccccc3C(F)(F)F)no2)c1)C(Cl)Cl [Compound 67, 2,2-Dichloro-N-[5-[3-(2-trifluoromethylphenyl)-5-isoxazolyl]-(3-pyridyl)] Acetamide] | > 10 | – | – | –
25 | O=C(Nc1cncc(-c2cc(-c3c(Cl)cccc3N3CCNCC3)no2)c1)C(Cl)Cl [Compound 73, 2,2-Dichloro-N-[5-[.3-(2-chloro-6-piperazinophenyl)-5-isoxazolyl]-(3-pyridyl)] Acetamide] | < 10 | – | – | –
26 | CC(C)(C)[Si](C)(C)Oc1cccc(Cl)c1-c1cc(-c2cncc(NC(=O)C(Cl)Cl)c2)on1 [Compound 75, 2,2-Dichloro-N-[5-[3-(2-chloro-6-tert-butyldimethylsilyloxyphenyl)-5-isoxazolyl]-(3-pyridyl)] Acetamide] | < 10 | – | – | –
27 | O=C(Nc1cncc(-c2cc(-c3c(O)cccc3Cl)no2)c1)C(Cl)Cl [Compound 77, 2,2-Dichloro-N-[5-[3-(2-chloro-6-hydroxyphenyl)-5-isoxazolyl]-(3-pyridyl)] Acetamide] | < 10 | – | – | –
28 | CCNC(=O)Oc1cccc(Cl)c1-c1cc(-c2cncc(NC(=O)C(Cl)Cl)c2)on1 [Compound 79, 2,2-Dichloro-N-[5-[3-(2-chloro-6-N-ethylcarbamoyloxyphenyl)-5-isoxazolyl]-(3-pyridyl)] Acetamide] | < 10 | – | – | –
29 | CC(C)(C)[Si](C)(C)Oc1cccc(Cl)c1-c1cc(-c2cc(NC(=O)C(Cl)Cl)ccn2)on1 [Compound 83, 2,2-Dichloro-N-[2-[3-(2-chloro-6-tert-butyldimethylsilyloxyphenyl)-5-isoxazolyl]-(4-pyridyl)] Acetamide] | < 10 | – | – | –
30 | CCCNC(=O)Oc1cccc(Cl)c1-c1cc(-c2cc(NC(=O)C(Cl)Cl)ccn2)on1 [Compound 85] | < 10 | – | – | –
31 | COCOc1cccc(Cl)c1-c1cc(-c2cc(NC(=O)C(Cl)Cl)ccn2)on1 [Compound 87] | < 10 | – | – | –
32 | O=C(Nc1ccnc(-c2cc(-c3c(O)cccc3Cl)no2)c1)C(Cl)Cl [Compound 89, 2,2-Dichloro-N-[2-[3-(2-chloro-6-hydioxyphenyl)-5-isoxazolyl]-(4-pyridyl)] Acetamide] | < 10 | – | – | –
33 | CN(C)c1nccc(Cl)c1-c1cc(-c2cccc(NC(=O)C(Cl)Cl)c2)on1 [Compound 91, 2,2-Dichloro-N-[3-[3-[(4-chloro-2-dimethylamino)-3-pyridyl]-5-isoxazolyl]phenyl] Acetamide] | < 10 | – | – | –
34 | O=C(Nc1cccc(-c2cc(-c3c(Cl)ccnc3Cl)no2)c1)C(Cl)Cl [Compound 93, 2,2-Dichloro-N-[3-[3-[(2,4-dichloro)-3-pyridy]-5-isoxazolyl]phenyl] Acetamide] | < 10 | – | – | –
35 | O=C(Nc1ccncc1-c1cc(-c2cccc(Br)n2)no1)C(Cl)Cl [Compound 97, 2,2-Dichloro-N-[3-[3-[(6-bromo)-2-pyridyl]-5-isoxazolyl]-(4-pyridyl)] Acetamide] | > 10 | – | – | –

— patent publication US7332602B2, “Pyridyl substituted heterocycles useful for treating or preventing HCV infection” (Rigel Pharmaceuticals, Inc., priority 2002, dated 2008)
